From paper PMC8179358, “An explicitly designed paratope of amyloid-β prevents neuronal apoptosis in vitro and hippocampal damage in rat brain” (Chemical Science, 2020)
*1 amine or outer side, *2 acyl side, *3 side chain or, on linkers, in order; H or OH if unused. Where a SMILES comes first, the peptide text is derived from it. Bridges are numbered along the chain shown (N, C = ends). Roman numbers before positions name the chains, in order. [ ]: non-standard residue; d: D form. X1 = O=C(CCCCC(=O)[*:2])NCCCOCCOCCOCCCNC(=O)CCC(=O)[*:1]; NMeF = CN[C@@H](Cc1ccccc1)C(=O)O; NMeL = CN[C@@H](CC(C)C)C(=O)O; NMeV = CN[C@H](C(=O)O)C(C)C

Legend:
Sprague-Dawley rats [1] = experiment: Acute and sub-chronic toxicity, mortality, behaviour and body weight; format: in vivo
Procedure: (§1) 24 male Sprague Dawley rats were randomly divided into three groups: control, SP1A, and SP1B. Each group contains 8 animals and administration of SP1was performed for 42 days through a tail vein by the following schedule: Control: Without any treatment.
(§2) Rats were sacrificed after 42 days of injection schedule and blood was collected for hematological and biochemical estimations. For the histopathological study, the liver and kidney were also isolated very carefully and checked for cytoarchitectural changes if any.
(§3) The body weights and volumes of SP1 to be administered were recorded for each animal. Prior to injection, the tail of the animal was warmed by using warm water circulating pad placed under the cage for 5-10 minutes to dilate the veins. A 25-gauge needle was inserted into the vein towards the direction of the head. The needle and syringe were kept parallel to the tail. […]
µg/kg and 500 µg/kg) was injected into the tail slowly. The needle was removed very carefully and gentle compression applied until bleeding was stopped. Animals were returned to their home cage. […]

Sprague-Dawley rats [2] = experiment: Sub-chronic toxicity, hematological and biochemical parameters; format: in vivo; conditions: for Basophil / Total Bilirubin / Creatinine / Eosinophil / Monocyte / RBC / WBC / Serum Urea / SGPT / Lymphocyte / SGOT / Neutrophil / Glucose / ALP: iv, 42 days, n = 8; for Basophil: control 0.00±0.00; for Total Bilirubin: control 0.58±0.04; for Creatinine: control 0.73±0.02; for Eosinophil: control 3.12±0.61; for Monocyte: control 3.20±0.99; for RBC: control 4.77±1.54; for WBC: control 6.60±1.20; for Serum Urea: control 26±1.45; for SGPT: control 38.0±1.70; for Lymphocyte: control 38.2±3.25; for SGOT: control 52.0±2.21; for Neutrophil: control 56.6±2.31; for Glucose: control 103.0±1.34; for ALP: control 111.0±3.46
Procedure: The tabulated biochemical profile (novel biomarkers of the liver and kidney) corroborates the safety charms of SP1 for further in vivo studies.
as §1, §2, §3
µg/kg and 500 µg/kg) was injected into the tail slowly. The needle was removed very carefully and gentle compression applied until bleeding was stopped. Animals were returned to their home cage.
The biochemical parameters including blood glucose, serum urea, creatinine, total bilirubin, serum glutamic oxaloacetic transaminase (SGOT), serum glutamic pyruvic transaminase (SGPT), and alkaline phosphatase (ALP) were analyzed for sub-chronic toxicity of SP1by using commercially available diagnostic test kits (Crest Biosystems kits, India). Blood parameters like red blood cells, white blood cells, hemoglobin, neutrophil, lymphocyte, eosinophil, monocyte, and basophil were estimated using standard kits by following the manufacturer’s manual.

SH-SY5Y cells [3] = experiment: MTT assay, Aβ40 induced cytotoxicity; format: cell-based, human; conditions: Aβ40 10 μM, 24 h
Procedure: 1.3. Methods for in vitro cell-based experiments
The human neuroblastoma cell line SH-SY5Y was obtained from the National Centre for Cell Science (NCCS, Pune, India). The cells were grown in DMEM, and Ham’s F12 nutrient mixture (DMEM/F12; 1:1) supplemented with 10% fetal bovine serum (FBS; Gibco, USA), 50 U/ml penicillin, 100 μg/ml streptomycin and incubated in a humidified atmosphere of 5% CO2 at 37°C. All experiments were carried […]
Each experiment was performed
Methylthiazol tetrazolium (MTT) reduction assay was used to measure the viability of cells.10 The SH-SY5Y cells were seeded at a density of 1.5 × 10^4 cells/well in a 96 well plate. To assess self-toxicity, cells […]
period 20µl of MTT reagent (5mg/ml in DPBS) was added to each well and incubated in a humidified atmosphere of 5% CO2 at 37°C for 4h. Formazan crystals (purple) are formed by the metabolically active cells by cleaving the yellow tetrazolium salt. After the incubation period, the MTT solution was aspirated, and 150µL of dimethyl sulfoxide (DMSO) was added to each well to dissolve the formazan precipitate.

SH-SY5Y cells [4] = experiment: Hoechst 33258 staining of apoptotic cells; format: cell-based, human; conditions: Aβ40 10 μM, 24 h
From the text: Condensed or fragmented nuclear bodies characterize the distinctive nature of apoptotic cells. […] Dyshomeostasis of Ca^2+ is also responsible for the increased production of Aβ peptides, by which a degenerative feed-forward cycle is activated, resulting in accelerated apoptosis, synaptic dysfunction, and memory impairment.[49]

[5] = SP1 500 µg/kg, *P<0.01 vs control

CC(C)C[C@H](NC(=O)CNC(=O)CCC(=O)NCCCOCCOCCOCCCNC(=O)CCCCC(=O)NCC(=O)N(C)[C@@H](CC(C)C)C(=O)N[C@H](C(=O)N(C)[C@@H](Cc1ccccc1)C(=O)N[C@@H](Cc1ccccc1)C(=O)N[C@@H](C)C(N)=O)C(C)C)C(=O)N(C)[C@H](C(=O)N[C@@H](Cc1ccccc1)C(=O)N(C)[C@@H](Cc1ccccc1)C(=O)N[C@@H](C)C(N)=O)C(C)C [SP1] (I: GL[NMeV]F[NMeF]A-NH2 / II: G[NMeL]V[NMeF]FA-NH2; linker I:N-II:N via X1)
mortality and behavioral patterns (Sprague-Dawley rats [1]; 100 and 500 μg kg−1, tail vein, 42 days): causes neither mortality nor abnormal behavioral patterns in rats
body weight (Sprague-Dawley rats [1]; 100 and 500 μg kg−1, days 7, 21, and 42, vs control): did not observe any significant changes in the rats' body weight
hematological and biochemical parameters, summary (Sprague-Dawley rats [2]; 100 μg kg−1, 42 days): did not find any severe changes in the hematological and biochemical parameters
hematological and biochemical parameters, summary (Sprague-Dawley rats [2]; 500 μg kg−1, 42 days): Almost similar observations in rats treated with SP1 (500 μg kg^−1) were revealed, except for monocyte and SGOT levels
Basophil (Sprague-Dawley rats [2]; SP1 100 µg/kg): 0.00±0.00%
Total Bilirubin (Sprague-Dawley rats [2]; SP1 100 µg/kg): 0.54 ± 0.09 mg/dL
Creatinine (Sprague-Dawley rats [2]; SP1 100 µg/kg): 0.69 ± 0.05 mg/dL
Eosinophil (Sprague-Dawley rats [2]; SP1 100 µg/kg): 2.62±0.82%
Monocyte (Sprague-Dawley rats [2]; SP1 100 µg/kg): 3.8±1.08%
RBC (Sprague-Dawley rats [2]; SP1 100 µg/kg): 5.20±1.23 10^6/mm3
WBC (Sprague-Dawley rats [2]; SP1 100 µg/kg): 5.80±1.34 10^3/mm3
Serum Urea (Sprague-Dawley rats [2]; SP1 100 µg/kg): 32.0 ± 1.83 mg/dL
SGPT (Sprague-Dawley rats [2]; SP1 100 µg/kg): 44.0±1.84 IU/L
Lymphocyte (Sprague-Dawley rats [2]; SP1 100 µg/kg): 42.3±2.92%
SGOT (Sprague-Dawley rats [2]; SP1 100 µg/kg): 55.0±2.94 IU/L
Neutrophil (Sprague-Dawley rats [2]; SP1 100 µg/kg): 58.00±2.54%
Glucose (Sprague-Dawley rats [2]; SP1 100 µg/kg): 110.0 ± 1.36 mg/dL
ALP (Sprague-Dawley rats [2]; SP1 100 µg/kg): 120.0±3.68 IU/L
Basophil (Sprague-Dawley rats [2]; SP1 500 µg/kg): 0.00±0.00%
Total Bilirubin (Sprague-Dawley rats [2]; SP1 500 µg/kg): 0.72 ± 0.06 mg/dL
Creatinine (Sprague-Dawley rats [2]; SP1 500 µg/kg): 0.86 ± 0.03 mg/dL
Eosinophil (Sprague-Dawley rats [2]; SP1 500 µg/kg): 2.72±0.53%
Monocyte (Sprague-Dawley rats [2]; [5]): 5.20±1.24%
RBC (Sprague-Dawley rats [2]; SP1 500 µg/kg): 5.51±1.38 10^6/mm3
WBC (Sprague-Dawley rats [2]; SP1 500 µg/kg): 6.21±1.15 10^3/mm3
Serum Urea (Sprague-Dawley rats [2]; SP1 500 µg/kg): 29.0 ± 1.66 mg/dL
SGPT (Sprague-Dawley rats [2]; SP1 500 µg/kg): 40.32±1.63 IU/L
Lymphocyte (Sprague-Dawley rats [2]; SP1 500 µg/kg): 40.5±3.12%
SGOT (Sprague-Dawley rats [2]; [5]): 64.2±2.56 IU/L
Neutrophil (Sprague-Dawley rats [2]; SP1 500 µg/kg): 62.10±2.42%
Glucose (Sprague-Dawley rats [2]; SP1 500 µg/kg): 105.0 ± 1.28 mg/dL
ALP (Sprague-Dawley rats [2]; SP1 500 µg/kg): 116.0±2.15 IU/L

Aβ40: commercially available Aβ40 peptide
cell population after Aβ40 alone (SH-SY5Y cells [3]): significant reduction in the cell population
apoptotic cells, Aβ40 alone (SH-SY5Y cells [4]): A significant number of apoptotic cells were observed
